Reference: patent US20070274947A1, “Antisense Oligonucleotides Directed to Ribonucleotide Reductase R1 and Uses Thereof in the Treatment of Cancer” (priority 2003, published 2007)
Entries after “also recorded” stand apart in the source; their conditions may differ.

Experiments:
[1] = tested on: human Burkitt's lymphoma (Raji) cells; assay: Survival of SCID mice bearing human Burkitt's lymphoma (Raji); assay type: in vivo
Experimental: In vivo studies were conducted to assess the therapeutic potential of SEQ ID NO:1 in the treatment of lymphoma. Viable human Burkitt's lymphoma (Raji) cells (5×10^6) collected from subconfluent logarithmically growing cultures were injected i.v. via the tail vein of each animal and disease was allowed to establish for 2 days. SEQ ID NO:1 in normal saline was administered by tail vein injections every second day at a dose of 10 mg/kg. Control animals received saline alone, without oligonucleotide. Treatment with SEQ ID NO:1 was stopped at day 42. The mice in both groups (n−10) were sacrificed at, day 73. Antitumor effects of SEQ ID NO:1 treatment were assessed by the examination of survival of mice (FIG. 18A). All mice died as a consequence of tumor progression within 23 days when left untreated. All SEQ ID NO:1 treated animals, on the other hand, survived beyond day 73 except one mouse which died at day 35. In an independent experiment, mice survived 140 days, even when treatment was stopped at day 70 (FIG. 18B). This experiment also included treatment with a control oligonucleotide, SEQ ID NO:1-SCR (scrambled version of SEQ ID NO:1). The saline and control ODN mice all died from disease progression by day 27. At day 40, the SEQ ID NO:1-treated mice continued treatment every three days until stopping the treatment at day 59. All mice survived to the end of the experimental period.

[2] = cynomolgus monkey, in vivo
[3] = tested on: SIHA human cervical cancer cells; assay: SIHA cervical tumor growth in SCID mice; assay type: in vivo
Experimental: SIHA human cervical cancer cells (1×10^7 cells in 100 μl of PBS) were subcutaneously injected into the right flank of 6-7 week old female SCID mice. After the size of tumor reached an approximate volume of 100 mm^3, 7 days post tumor cell injection, SEQ ID NO:1 was administered by bolus infusion into the tail vein every other day at 10 mg/kg. Control animals received saline alone for the same period. Treatments lasted for 16 days thereafter. Antitumor activities were estimated by the inhibition of tumor volume (FIG. 11A), which was measured with a caliper on five different occasions over 16-day period. Each point represents mean tumor volume calculated from 10 animals per experimental group.

[4] = tested on: CB7 Friend retrovirus-induced mouse Erytheroleukemia cells; assay: Survival of SCID mice bearing mouse erythroleukemia (CB7); assay type: in vivo; conditions: 10 mg/kg i.v. every second day, stopped at day 71; one mouse died at day 30 and another at day 54; untreated died within 36 days
Experimental: In vivo studies were conducted to assess the therapeutic potential of SEQ ID NO:1 in the treatment of mouse Erythroleukemia. CB7 Friend retrovirus-induced mouse Erytheroleukemia cells (5×10^6) collected from subconfluent logarithmically growing cultures were injected i.v. via the tail vein of each animal and disease was allowed to establish for 2 days. SEQ ID NO:1 in normal saline was administered by tail vein injections every second day at a dose of 10 mg/kg. Control animals received saline alone, without oligonucleotide. Treatment with SEQ ID NO:1 was stopped at day 71. Antitumor effects of SEQ ID NO:1 treatment were assessed by the examination of survival of mice (FIG. 19). All mice died as a consequence of tumor progression within 36 days when left untreated. All SEQ ID NO:1 treated animals, on the other hand, survived beyond day 71 except one mouse which died at day 30 and another at day 54.

[5] = Tissue distribution after continuous infusion in rats; assay type: in vivo; conditions: rat
[6] = cynomolgus monkey, in vivo; remark: listed apart in the source
[7] = tested on: R1 mRNA; assay: Northern blot of R1 mRNA in MDA-MB-231 cells; assay type: cell-based, human; conditions: 0.2 μM, four hours with Lipofectin, 16 hours recovery
Experimental: Total RNA was isolated using TRIzol reagent (GIBCO BRL) after cells were treated with 0.2 μM SEQ ID NO:1 for four hours in the presence of cationic lipid (Lipofectin reagent, GIBCO BRL), washed with PBS, and incubated for 16 hours to recover in normal medium containing 10% FBS. Northern blot analysis was performed as previously described (Hurta and Wright, 1995). RNA was subjected to electrophoresis through 1% formaldehyde agarose gels followed by transfer to nylon membranes. Blots were hybridized in the presence of a R1 fragment (McClarty et al, 1987). Glyceraldehyde-3-phosphate dehydrogenase (GAPDH) mRNA levels were simultaneously probed for RNA loading controls.

[8] = tested on: DU145 human prostatic cancer cells; assay: DU145 prostate tumor growth in SCID mice; assay type: in vivo
Experimental: DU145 human prostatic cancer cells (1×10^7 cells in 100 μl of PBS) were subcutaneously injected into the right flank of 6-7 week old male SCID mice. After the size of the tumors reached an approximate volume of 50 mm^3, 13 days post tumor cell injection, SEQ ID NO:1 was administered by bolus infusion into the tail vein every other day at 10 mg/kg. Control animals received saline alone for the same period. Treatments lasted for 30 days thereafter. Antitumor activities were estimated by the inhibition of tumor volume, which was measured with a caliper on nine different occasions over 30-day period. Each point represents mean tumor volume calculated from 5 animals per experimental group.
In both experiments, DU145 human prostatic cancer cells (1×10^7 cells in 100 μl of PBS) were subcutaneously injected into the right flank of 6-7 weeks old male SCID mice. After the size of tumor reached an approximate volume of 50 mm^3, 13 (upper panel) or 11 (lower panel) days post tumor cell injection, SEQ ID NO:1 was administered by bolus infusion into the tail vein every other day at 10 mg/kg 15 times (upper panel) or 14 times (lower panel), respectively. Control animals received saline alone for the same period. Antitumor effect of SEQ ID NO:1 was further compared to that of mitoxantrone (novantrone®) alone or in combination. Mitoxantrone was administered intravenously once at the beginning of the treatments at a dose of 2 mg/kg (upper panel) or once a week for four weeks at a reduced dose of 0.8 mg/kg (lower panel). All treatments were stopped at day 42 (upper panel) or 38 (lower panel), respectively. A day after the last treatment, tumors were excised from the animals and their weights were measured.

[9] = rat, in vivo

Question: Which results are given for “5′-CTCTAGCGTCTTAAAGCCGA-3′ (CTCTAGCGTCTTAAAGCCGA; chemistry not given here) [SEQ ID NO:1]”?
Answer: survival of mice ([1]; FIG. 18A, 10 mg/kg i.v. every second day, stopped at day 42, one mouse died at day 35, untreated died within 23 days): > 73 days; survival of mice ([1]; independent experiment FIG. 18B, saline mice died by day 27): ≥ 140 days; Cmax and AUC estimates versus dose [2]: proportional with the administered dose; mean Cl, high dose group compared to low dose group [2]: slightly increased mean Cl value; mean elimination t1/2, high dose group compared to low dose group [2]: significantly larger mean elimination t1/2; sex differences in pharmacokinetics [2]: no clear observed sex differences; inhibition of tumor volume ([3]; 10 mg/kg i.v. every other day, 16 days, vs saline): strong inhibitory effects; weight of excised tumors ([3]; end of treatments): strong antitumor effect; survival of mice [4]: > 71 days; levels in the brain [5]: very low or below the limits of detection; also recorded: undetectable; tissue concentrations, rank order [5]: kidney>liver>spleen>lymph node (monkey)>lung (monkey)>heart; also recorded: highest in the kidney followed by the liver, spleen and heart; clinical parameters in mid and low dose animals [6]: Transient changes; complement split product Bb [6]: appeared to increase; activated partial thromboplastin time (APTT) ([6]; 40 mg/kg/day): reversible increase; R1 mRNA level [7]: specifically decreases R1 mRNA; also recorded: significant decrease; also recorded: decreased R1 mRNA levels; inhibition of tumor volume ([8]; SCID mice, 10 mg/kg i.v. every other day, 30 days, vs saline, 10 mg/kg): strong inhibitory effects; tumor weight / tumor growth ([8]; upper panel FIG. 2, SEQ ID NO:1 10 mg/kg every other day 15 times, mitoxantrone 2 mg/kg i.v. once, vs saline): significant delay of tumor growth; delay in tumor growth compared with mitoxantrone alone ([8]; upper panel FIG. 2, mitoxantrone 2 mg/kg once): superior to the inhibitory effects observed with mitoxantrone alone; elimination from plasma (profile) [9]: biphasic; measurable in plasma post dose [9]: up to 24 h; plasma levels (AUC and Cmax) versus dose [9]: increased in proportion to administered dose; time of Cmax / maximum concentration post dose ([9]; iv): 5 min; apparent terminal elimination phase t1/2 ([9]; iv, 50 mg/kg): 4.72 to 5.80 h; plasma clearance ([9]; iv, 50 mg/kg): 49.67-43.30 mL/kg·h
